Experimental data reported in PubChem BioAssay (NCI).
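Where inhibition never reached the appropriate level, the endpoint shown equals the highest concentration tested. Otherwise, values were interpolated linearly from a five-concentration, 48-hour dose response in 96-well plates. TGI denotes the concentration required for complete inhibition of growth.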

Legend:
Assay in all cases: NCI anticancer screen, dose series, 48 h
NCI-H460 lung = system: NCI-H460 lung
SK-MEL-2 melanoma = system: SK-MEL-2 melanoma
NCI/ADR-RES ovarian = system: NCI/ADR-RES ovarian
SNB-75 CNS = system: SNB-75 CNS
SK-MEL-5 melanoma = system: SK-MEL-5 melanoma
NCI-H522 lung = system: NCI-H522 lung
MCF7 breast = system: MCF7 breast
HS 578T breast = system: HS 578T breast
HT29 colon = system: HT29 colon
SF-295 CNS = system: SF-295 CNS
SK-OV-3 ovarian = system: SK-OV-3 ovarian
SNB-19 CNS = system: SNB-19 CNS
MALME-3M melanoma = system: MALME-3M melanoma
EKVX NSCLC = system: EKVX NSCLC
OVCAR-4 ovarian = system: OVCAR-4 ovarian
SR leukemia = system: SR leukemia
HOP-92 NSCLC = system: HOP-92 NSCLC
OVCAR-5 ovarian = system: OVCAR-5 ovarian
UACC-62 melanoma = system: UACC-62 melanoma
HCC-2998 colon = system: HCC-2998 colon
MDA-MB-435 = system: MDA-MB-435
MDA-N = system: MDA-N
PC-3 prostate = system: PC-3 prostate
SW-620 colon = system: SW-620 colon
ACHN renal = system: ACHN renal
786-0 renal = system: 786-0 renal
T-47D breast = system: T-47D breast
KM12 colon = system: KM12 colon
SF-539 CNS = system: SF-539 CNS
HCT-116 colon = system: HCT-116 colon
COLO 205 colon = system: COLO 205 colon
M14 melanoma = system: M14 melanoma
RPMI-8226 leukemia = system: RPMI-8226 leukemia
NCI-H23 lung = system: NCI-H23 lung
TK-10 renal = system: TK-10 renal
UO-31 renal = system: UO-31 renal
SF-268 CNS = system: SF-268 CNS
BT-549 breast = system: BT-549 breast
SN12C renal = system: SN12C renal
CCRF-CEM leukemia = system: CCRF-CEM leukemia
NCI-H226 lung = system: NCI-H226 lung
UACC-257 melanoma = system: UACC-257 melanoma
A549 NSCLC = system: A549 NSCLC
RXF 393 renal = system: RXF 393 renal
HCT-15 colon = system: HCT-15 colon
MDA-MB-231 breast = system: MDA-MB-231 breast
IGROV1 ovarian = system: IGROV1 ovarian
CAKI-1 renal = system: CAKI-1 renal
OVCAR-8 ovarian = system: OVCAR-8 ovarian
U251 CNS = system: U251 CNS
SK-MEL-28 melanoma = system: SK-MEL-28 melanoma
LOX IMVI melanoma = system: LOX IMVI melanoma
K-562 leukemia = system: K-562 leukemia
DU-145 prostate = system: DU-145 prostate
HL-60(TB) leukemia = system: HL-60(TB) leukemia
HOP-62 NSCLC = system: HOP-62 NSCLC
OVCAR-3 ovarian = system: OVCAR-3 ovarian
A498 renal = system: A498 renal
MOLT-4 leukemia = system: MOLT-4 leukemia
KM20L2 colon = system: KM20L2 colon
DMS 114 small cell lung = system: DMS 114 small cell lung
M19-MEL melanoma = system: M19-MEL melanoma
DLD-1 colon = system: DLD-1 colon

CC(C)=CCC/C(C)=C/CC/C(C)=C/CCN(C)CCO
TGI (NCI-H460 lung): 14.5 µM | TGI (SK-MEL-2 melanoma): 28.1 µM | TGI (NCI/ADR-RES ovarian): 26.7 µM | TGI (SNB-75 CNS): 21 µM | TGI (SK-MEL-5 melanoma): 3.44 µM | TGI (NCI-H522 lung): 16.5 µM | TGI (MCF7 breast): 7.13 µM | TGI (HS 578T breast): 6.57 µM | TGI (HT29 colon): 23.3 µM | TGI (SF-295 CNS): 12.1 µM | TGI (SK-OV-3 ovarian): 29.6 µM | TGI (SNB-19 CNS): 22.8 µM | TGI (MALME-3M melanoma): 8.33 µM | TGI (EKVX NSCLC): 32.3 µM | TGI (OVCAR-4 ovarian): 29.1 µM | TGI (SR leukemia): 21.4 µM | TGI (HOP-92 NSCLC): 9.9 µM | TGI (OVCAR-5 ovarian): 21.1 µM | TGI (UACC-62 melanoma): 27.1 µM | TGI (HCC-2998 colon): 4.38 µM | TGI (MDA-MB-435): 17.4 µM | TGI (MDA-N): 14.3 µM | TGI (PC-3 prostate): 18.2 µM | TGI (SW-620 colon): 18.4 µM | TGI (ACHN renal): 23.9 µM | TGI (786-0 renal): 4.83 µM | TGI (T-47D breast): 7.4 µM | TGI (KM12 colon): 7.77 µM | TGI (SF-539 CNS): 14.8 µM | TGI (HCT-116 colon): 16.3 µM | TGI (COLO 205 colon): 3.25 µM | TGI (M14 melanoma): 3.81 µM | TGI (RPMI-8226 leukemia): 11 µM | TGI (NCI-H23 lung): 27.6 µM | TGI (TK-10 renal): 19.4 µM | TGI (UO-31 renal): 25.3 µM | TGI (SF-268 CNS): 27 µM | TGI (BT-549 breast): 26.3 µM | TGI (SN12C renal): 25.5 µM | TGI (CCRF-CEM leukemia): 8.65 µM | TGI (NCI-H226 lung): 38.7 µM | TGI (UACC-257 melanoma): 21.7 µM | TGI (A549 NSCLC): 23.3 µM | TGI (RXF 393 renal): 24.9 µM | TGI (HCT-15 colon): 13.7 µM | TGI (MDA-MB-231 breast): 23.9 µM | TGI (IGROV1 ovarian): 8.34 µM | TGI (CAKI-1 renal): 19.2 µM | TGI (OVCAR-8 ovarian): 27.3 µM | TGI (U251 CNS): 12.7 µM | TGI (SK-MEL-28 melanoma): 25.1 µM | TGI (LOX IMVI melanoma): 14.3 µM | TGI (K-562 leukemia): 3.24 µM | TGI (DU-145 prostate): 25.9 µM | TGI (HL-60(TB) leukemia): 3.68 µM | TGI (HOP-62 NSCLC): 19.6 µM | TGI (OVCAR-3 ovarian): 28.9 µM | TGI (A498 renal): 29.3 µM | TGI (MOLT-4 leukemia): 11.1 µM

C[N+](C)(C)CC(=O)N/N=C(/Cc1nc2ccc(Cl)cc2[nH]c1=O)C1=NS(=O)(=O)c2cc(S(N)(=O)=O)c(Cl)cc2N1
TGI (NCI-H460 lung): > 100 µM | TGI (SK-MEL-2 melanoma): > 100 µM | TGI (SK-MEL-5 melanoma): > 100 µM | TGI (NCI-H522 lung): > 100 µM | TGI (HT29 colon): > 100 µM | TGI (SF-295 CNS): > 100 µM | TGI (SK-OV-3 ovarian): > 100 µM | TGI (SNB-19 CNS): > 100 µM | TGI (MALME-3M melanoma): > 100 µM | TGI (EKVX NSCLC): > 100 µM | TGI (OVCAR-4 ovarian): > 100 µM | TGI (SR leukemia): > 100 µM | TGI (KM20L2 colon): > 100 µM | TGI (OVCAR-5 ovarian): > 100 µM | TGI (UACC-62 melanoma): > 100 µM | TGI (DMS 114 small cell lung): > 100 µM | TGI (HCC-2998 colon): > 100 µM | TGI (SW-620 colon): > 100 µM | TGI (ACHN renal): > 100 µM | TGI (786-0 renal): > 100 µM | TGI (KM12 colon): > 100 µM | TGI (SF-539 CNS): > 100 µM | TGI (HCT-116 colon): > 100 µM | TGI (COLO 205 colon): > 100 µM | TGI (RPMI-8226 leukemia): > 100 µM | TGI (NCI-H23 lung): > 100 µM | TGI (TK-10 renal): > 100 µM | TGI (UO-31 renal): > 100 µM | TGI (SF-268 CNS): > 100 µM | TGI (SN12C renal): > 100 µM | TGI (CCRF-CEM leukemia): > 100 µM | TGI (M19-MEL melanoma): > 100 µM | TGI (UACC-257 melanoma): > 100 µM | TGI (A549 NSCLC): > 100 µM | TGI (RXF 393 renal): > 100 µM | TGI (IGROV1 ovarian): > 100 µM | TGI (OVCAR-8 ovarian): > 100 µM | TGI (DLD-1 colon): > 100 µM | TGI (SK-MEL-28 melanoma): > 100 µM | TGI (K-562 leukemia): > 100 µM | TGI (HL-60(TB) leukemia): > 100 µM | TGI (HOP-62 NSCLC): > 100 µM | TGI (OVCAR-3 ovarian): > 100 µM | TGI (A498 renal): > 100 µM | TGI (MOLT-4 leukemia): > 100 µM

Cc1ccc(C(N)=Nc2ccccc2)cc1
TGI (NCI-H460 lung): > 100 µM | TGI (SK-MEL-2 melanoma): > 100 µM | TGI (NCI/ADR-RES ovarian): > 100 µM | TGI (SNB-75 CNS): > 100 µM | TGI (SK-MEL-5 melanoma): > 100 µM | TGI (NCI-H522 lung): > 100 µM | TGI (MCF7 breast): > 100 µM | TGI (HS 578T breast): > 100 µM | TGI (HT29 colon): > 100 µM | TGI (SF-295 CNS): > 100 µM | TGI (SK-OV-3 ovarian): > 100 µM | TGI (SNB-19 CNS): > 100 µM | TGI (MALME-3M melanoma): > 100 µM | TGI (EKVX NSCLC): > 100 µM | TGI (OVCAR-4 ovarian): > 100 µM | TGI (SR leukemia): > 100 µM | TGI (HOP-92 NSCLC): > 100 µM | TGI (OVCAR-5 ovarian): > 100 µM | TGI (UACC-62 melanoma): > 100 µM | TGI (HCC-2998 colon): 33.7 µM | TGI (MDA-MB-435): > 100 µM | TGI (MDA-N): > 100 µM | TGI (PC-3 prostate): > 100 µM | TGI (SW-620 colon): > 100 µM | TGI (ACHN renal): > 100 µM | TGI (786-0 renal): > 100 µM | TGI (T-47D breast): > 100 µM | TGI (KM12 colon): > 100 µM | TGI (SF-539 CNS): > 100 µM | TGI (HCT-116 colon): > 100 µM | TGI (COLO 205 colon): 42.2 µM | TGI (M14 melanoma): > 100 µM | TGI (RPMI-8226 leukemia): > 100 µM | TGI (NCI-H23 lung): > 100 µM | TGI (TK-10 renal): > 100 µM | TGI (UO-31 renal): > 100 µM | TGI (SF-268 CNS): > 100 µM | TGI (BT-549 breast): > 100 µM | TGI (SN12C renal): > 100 µM | TGI (CCRF-CEM leukemia): > 100 µM | TGI (NCI-H226 lung): > 100 µM | TGI (UACC-257 melanoma): > 100 µM | TGI (A549 NSCLC): > 100 µM | TGI (RXF 393 renal): > 100 µM | TGI (HCT-15 colon): > 100 µM | TGI (MDA-MB-231 breast): > 100 µM | TGI (IGROV1 ovarian): > 100 µM | TGI (CAKI-1 renal): > 100 µM | TGI (OVCAR-8 ovarian): > 100 µM | TGI (U251 CNS): > 100 µM | TGI (SK-MEL-28 melanoma): > 100 µM | TGI (LOX IMVI melanoma): > 100 µM | TGI (K-562 leukemia): > 100 µM | TGI (DU-145 prostate): > 100 µM | TGI (HL-60(TB) leukemia): > 100 µM | TGI (HOP-62 NSCLC): > 100 µM | TGI (OVCAR-3 ovarian): > 100 µM | TGI (A498 renal): > 100 µM | TGI (MOLT-4 leukemia): > 100 µM
